Measurements reported in the supplement of paper PMC10307832.

Experiments:
Experiment in all cases: relative viability (nuclei count vs DMSO), 5 days (fraction); higher = more cells survive
Wnt-C59 + Trametinib = compound: CC1=NC=CC(=C1)C2=CC=C(C=C2)CC(=O)NC3=CC=C(C=C3)C4=CN=CC=C4 [Wnt-C59] + CC(=O)Nc1cccc(-n2c(=O)n(C3CC3)c(=O)c3c(Nc4ccc(I)cc4F)n(C)c(=O)c(C)c32)c1 [Trametinib] (partner 0.02 µM)
In short: (§1)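 The day after seeding in 1536-well plates, lung cancer cell lines were treated by pin tool with a single drug, or with a fixed anchor-drug dose together with five library-drug doses (not always all listed) in √10 steps. After 5 days, a combined fix-and-stain solution (final 0.05% Triton X-100, 1% formaldehyde, 1 ug/ml Hoechst) was added. Nuclei counted on 4× images gave relative viability as treated counts over vehicle counts, reported as the median of duplicate plates.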

Wnt-C59 + Lapatinib = compound: CC1=NC=CC(=C1)C2=CC=C(C=C2)CC(=O)NC3=CC=C(C=C3)C4=CN=CC=C4 [Wnt-C59] + CS(=O)(=O)CCNCc1ccc(-c2ccc3ncnc(Nc4ccc(OCc5cccc(F)c5)c(Cl)c4)c3c2)o1 [Lapatinib] (partner 2 µM)
In short: as §1

Lapatinib + Foretinib = compound: CS(=O)(=O)CCNCc1ccc(-c2ccc3ncnc(Nc4ccc(OCc5cccc(F)c5)c(Cl)c4)c3c2)o1 [Lapatinib] + COc1cc2c(Oc3ccc(NC(=O)C4(C(=O)Nc5ccc(F)cc5)CC4)cc3F)ccnc2cc1OCCCN1CCOCC1 [Foretinib] (partner 0.25 µM)
In short: as §1

Wnt-C59 + AZD7762 = compound: CC1=NC=CC(=C1)C2=CC=C(C=C2)CC(=O)NC3=CC=C(C=C3)C4=CN=CC=C4 [Wnt-C59] + NC(=O)Nc1cc(-c2cccc(F)c2)sc1C(=O)N[C@H]1CCCNC1 [AZD7762] (partner 0.2 µM)
In short: as §1

Row | Cell Line | relative viability (Wnt-C59 + Trametinib; first compound 0.001 µM) | relative viability (Wnt-C59 + Trametinib; first compound 0.01 µM) | relative viability (Wnt-C59 + Trametinib; first compound 0.03162 µM) | relative viability (Wnt-C59 + Trametinib; first compound 0.1 µM) | relative viability (Wnt-C59 + Lapatinib; first compound 0.001 µM) | relative viability (Wnt-C59 + Lapatinib; first compound 0.01 µM) | relative viability (Wnt-C59 + Lapatinib; first compound 0.03162 µM) | relative viability (Wnt-C59 + Lapatinib; first compound 0.1 µM) | relative viability (Lapatinib + Foretinib; first compound 0.02 µM) | relative viability (Lapatinib + Foretinib; first compound 0.06325 µM) | relative viability (Lapatinib + Foretinib; first compound 0.2 µM) | relative viability (Lapatinib + Foretinib; first compound 0.6325 µM) | relative viability (Lapatinib + Foretinib; first compound 2 µM) | relative viability (Wnt-C59 + AZD7762; first compound 0.001 µM) | relative viability (Wnt-C59 + AZD7762; first compound 0.01 µM) | relative viability (Wnt-C59 + AZD7762; first compound 0.03162 µM) | relative viability (Wnt-C59 + AZD7762; first compound 0.1 µM)
1 | COR-L 105 | 0.444 | 0.433 | 0.448 | 0.488 | 0.342 | 0.381 | 0.407 | 0.358 | 0.987 | 0.928 | 0.689 | 0.491 | 0.582 | – | – | – | –
2 | LCLC-103H | 0.716 | 0.667 | 0.667 | 0.713 | – | – | – | – | 0.849 | 0.744 | 0.753 | 0.835 | 0.712 | 0.798 | 0.712 | 0.824 | 0.775
3 | NCI-H2228 | 0.549 | 0.574 | 0.477 | 0.499 | 1.3 | 1.07 | 0.801 | 0.874 | 0.837 | 0.714 | 0.96 | 0.826 | 0.701 | – | – | – | –
4 | NCI-H1792 | 0.395 | 0.348 | 0.526 | 0.352 | 0.866 | 0.982 | 0.991 | 0.913 | – | – | – | – | – | 0.659 | 0.676 | 0.701 | 0.854
5 | NCI-H2342 | 0.786 | 0.757 | 0.91 | 0.797 | – | – | – | – | 1.09 | 1.01 | 0.946 | 0.975 | 0.712 | 0.525 | 0.498 | 0.495 | 0.457
6 | NCI-H1623 | – | – | – | – | – | – | – | – | 0.702 | 0.637 | 0.634 | 0.785 | 0.277 | – | – | – | –
7 | ABC-1 | – | – | – | – | 1.1 | 1.18 | 1.14 | 1.19 | 0.949 | 0.912 | 1.16 | 1.32 | 0.964 | 0.89 | 0.686 | 0.488 | 0.518
8 | NCI-H2023 | 0.608 | 0.579 | 0.679 | 0.543 | 0.715 | 0.93 | 1.17 | 0.666 | – | – | 0.685 | 0.437 | 0.357 | – | – | – | –
9 | NCI-H441 | 0.474 | 0.451 | 0.465 | 0.434 | – | – | – | – | – | 0.931 | 1.01 | 0.822 | 1.1 | 1.19 | 1.35 | 1.48 | 0.997
10 | NCI-H661 | 0.567 | 0.559 | 0.593 | 0.631 | 0.418 | 0.613 | 0.558 | 0.577 | 0.972 | 0.926 | 0.856 | 0.666 | 0.62 | – | – | – | –
11 | NCI-H1299 | – | – | – | – | 0.984 | 0.975 | 0.982 | 0.988 | 1.1 | 0.885 | 1.12 | 1.1 | 1.05 | – | – | – | –
12 | COR-L23 | 0.626 | 0.648 | 0.684 | 0.56 | 1.04 | 0.851 | 1.05 | 0.797 | 0.949 | 0.872 | 0.918 | 0.971 | 0.891 | – | – | – | –
13 | ChaGo-K-1 | 0.845 | 0.875 | 0.96 | 0.841 | – | – | – | – | 0.907 | 0.936 | 0.879 | 0.951 | 0.835 | 0.893 | 0.844 | 0.955 | 0.901
